According to patent publication US11834698B2, “Process for determining enzyme activity in a cell by activity-based reporter gene technology (ABRGT)” (INDIAN INSTITUTE OF SCIENCE EDUCATION AND RESEARCH, priority 2018, dated 2023):

Assays:
[1] = target: T1, recombinant human caspase-3 His tagged enzyme (rcaspase-3) (Homo sapiens, UniProt P42574); test: In-gel fluorescence labelling of purified rcaspase-3 by fABP; format: binding
T1 construct: The purified rcaspase-3 was confirmed with the two peaks obtained at 12939 and 16598 Da; His tag; made in house
T1 sequence (P42574 29-175 limits assumed): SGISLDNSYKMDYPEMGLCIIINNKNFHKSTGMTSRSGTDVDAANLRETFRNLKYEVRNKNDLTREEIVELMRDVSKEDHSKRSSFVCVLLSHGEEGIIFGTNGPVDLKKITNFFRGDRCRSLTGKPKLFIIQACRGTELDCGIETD
T1 sequence (P42574 176-277 limits assumed): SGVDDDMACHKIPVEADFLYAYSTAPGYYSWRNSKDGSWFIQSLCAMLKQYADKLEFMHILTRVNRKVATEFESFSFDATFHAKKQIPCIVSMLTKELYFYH
Method: FIG. 4 depicts (a) labelling of purified rcaspase-3 (2 μM) by probe 1 at a concentration of 100, 500 and 2000 nM. (b) integrated band intensity values. (c) The specificity of probe 1 (1 μM) to label active enzyme (500 nM); (lane 1: active rcaspase-3 in the presence of probe 1, lane 2: thermally denatured rcaspase-3 in the presence of probe 1.
To establish AbRGT, the specific activation of caspase-3 GFPspark was monitored, in the apoptosis signalling pathway, using fABP, Rhodamine-VAD-fluoromethyl ketone (Rh-VAD-FMK) probe (probe 1) (Micale et al., JACS, 2004) [FIG. 2(a)] in MCF-7 cells. Here, rhodamine is the fluorescent tag, VAD is the peptide recognition sequence for caspases and FMK is the reactive warhead for targeting pan-caspases. Before monitoring the specific caspase-3 activation in the native cellular environment, the active-site labelling of probe 1 to the caspase-3 enzyme in in vitro conditions was first validated. The recombinant human caspase-3 His tagged enzyme (rcaspase-3) was expressed and purified using Ni-NTA column chromatography (Stennicke et al., Methods, 1999). […] The labelled enzyme samples were then separated on a 12% SDS-PAGE gel and were visualized using an in-gel fluorescence scanner. […]

Jurkat cell lysate = test: In-gel fluorescence assay of off-target labelling in Jurkat cells; format: cell-based; details: Jurkat cell lysate 2 μg/μL, probe 1 μM
Method: FIG. 5 depicts cellular off-target labelling of the probe 1 shown in Jurkat cells 2.5 million Jurkat cells were incubated with 1 μM probe 1 in the (b) presence or (c) the absence of STS (1 μM) for 6 h. Cells are incubated (a) without and (d) with the probe 1 and STS. Cells comprising labelled enzymes were lysed and analyzed by 12% SDS-PAGE followed by scanning for rhodamine fluorescence (Ex: 561 nm, Em: 605 nm) with a flat-bed laser scanner.
To rule out that the obtained FRET signal in [FIG. 2b (i)] is not because of random physical interaction between GFPspark and rhodamine dye, MCF-7 cells were transfected with a plasmid encoding for enhanced green fluorescent protein (EGFP). EGFP transfected MCF-7 cells were treated with STS (1 μM) for 4 h, labelled with the probe 1. […] In-gel fluorescence assay was also performed to validate the multiple off-targets labelling of probe 1 which has also been shown in the previous reports. […] The calculated FRET efficiency for (n=15 cells) is 35±1%. […] Caspase-3 activation was also monitored using probe 2 as fABP which is different from probe 1 in terms of peptide recognition sequence; DEVD in exchange for VAD as DEVD peptide sequence is more specific for caspases as compared to VAD. Probe 2 yielded a similar pattern of fluorescence signal in GFPspark, FRET and Rh channel as that of probe 1 [FIG. 7(a)]. The calculated FRET efficiency was 35% [FIG. 7(b)]. […]

[2] = system: enhanced green fluorescent protein (EGFP); test: EGFP control for random GFP-rhodamine interaction in MCF-7 cells; format: cell-based; details: MCF-7, EGFP plasmid, STS 1 μM 4 h, labelled with probe 1
Method: FIG. 2 depicts (a) a schematic representation of AbRGT in determining the specific activation of caspase-3 GFPspark tagged enzyme by FRET effect utilizing Rh-VAD-FMK (probe 1). (b) The fluorescence signal was collected in GFP, FRET and Rhodamine (Rh) channels. MCF-7 cells transfected with caspase-3 GFPspark treated with (i) 1 μM STS for 4 h or (ii) 1 μg/ml TRAIL for 5 h and then labelled with probe 1. (iii) Un-transfected MCF-7 cells were treated with 1 μM STS for 4 h and then labelled with the probe 1. MCF-7 cells transfected with enhanced green fluorescent protein (EGFP) plasmid treated (iv) with 1 μM STS or (v) without STS for 4 h and then labelled with probe 1, scale bar, 10 a.u. […] Images for GFP and rhodamine fluorescence signals were collected in GFP and FRET channels pre- and post-bleaching of rhodamine signals. (d) Quantification of change in GFP fluorescence intensity after rhodamine photo-bleaching in both unbleached control region and rhodamine bleached region, region of interest (ROI), area under the white square. […]
To rule out that the obtained FRET signal in [FIG. 2b (i)] is not because of random physical interaction between GFPspark and rhodamine dye, MCF-7 cells were transfected with a plasmid encoding for enhanced green fluorescent protein (EGFP). […] The calculated FRET efficiency for (n=15 cells) is 35±1%. […] The calculated FRET efficiency was 35% [FIG. 7(b)]. […]

caspase-3 = target: T2, caspase-3 (Homo sapiens, UniProt P42574); details: previously shown; cited from earlier work
T2 sequence (P42574 29-175 limits assumed): T1 sequence (P42574 29-175 limits assumed)
T2 sequence (P42574 176-277 limits assumed): T1 sequence (P42574 176-277 limits assumed)

Rhodamine-VAD-fluoromethyl ketone [probe 1]
fluorescence signal after thermal denaturation of rcaspase-3 before labelling ([1]; probe 1 μM, enzyme 500 nM): completely abolished | concentration at which probe effectively labelled rcaspase-3 ([1]; rcaspase-3 2 μM, probe 100, 500, 2000 nM, SDS-PAGE in-gel fluorescence): ≤ 100 nM | off-target labelling, bands on SDS-PAGE gel upon rhodamine excitation (Jurkat cell lysate): multiple bands | fluorescence signal in FRET channel, EGFP transfected cells [2]: no fluorescence signal was observed | affinity for caspase-3 (caspase-3): moderate affinity | selectivity for caspase-3 (caspase-3): low selectivity
